The structures appear in SMILES notation.

`CCCCCCCCCCCCCCCCCCOc1cn(Cc2ccccc2)c(CO)cc1=O` had a melting point of 120 to 121 °C.
In the case of `CCOC(=O)c1cc2occc2nc1C(=O)OCC`, the melting point lay in the range of 60 to 64 °C.
With `CCCCNC(=O)c1nc2ccc(OC)cc2[nH]1`, the melting point lay within 125 to 126 °C.
Under `CCc1cn(C2CC(O)C(CCC(O)Cc3c(Cl)cccc3Cl)O2)c(=O)[nH]c1=O` (mixture of isomers) stands 185 to 186 °C; under `C=CCn1c2c(c3ccccc31)C(=O)C(Cn1ccnc1C)CC2` (configuration not stated), 132 °C; under `O=C1CC2CCS(=O)c3ccccc3C2=NN1c1ccc(Cl)cc1` (configuration not stated), 190 to 191 °C.
The result for `COP(=O)(Cc1cccc(CP(=O)(OC)OC)c1F)OC` reads 116 to 118 °C; that for `Cn1ncnc1COc1nn2c(-c3ccccc3F)nnc2cc1C1CCCO1` (configuration not stated), 136 to 139 °C.
`CCn1ccc2c(c1=O)CN=C(N1CCNCC1)N2`: the melting point lay within 117 to 120 °C.
The result for `COc1cc2ncc(C#N)c(Nc3ccc(Sc4ccccc4)c(Cl)c3)c2cc1OC` reads 124 to 130 °C; that for `CC(C)c1nccn1-c1nc(Cl)nc2nc[nH]c12`, 268 °C.
Turning to `C=CC=Cc1cc(Oc2cnc(N)nc2N)c(I)cc1C`, the melting point is 195 to 197 °C.
Compound `CC(C)C(c1cccc(NC(=O)OCc2ccccc2)c1)c1c(O)c2c(oc1=O)CCCCCC2` (configuration not stated) displayed a melting point of 96 to 101 °C.
Compound `COc1cc(Nc2nccc(-c3ccc(N)s3)n2)cc(OC)c1OC` returned a melting point of 161 to 162 °C.
Regarding `COc1c(F)cc(F)c(C(N)=O)c1F`, the melting point worked out at 102 °C.
Under `CCOC(=O)c1cc([N+](=O)[O-])ccc1O` stands 97 °C; under `CS(=O)(=O)c1ccc2ncn(/C=C/C(=O)O)c(=O)c2c1`, 284 to 290 °C; under `CCC(CC)N1CSc2cnc(N)nc21`, greater than 232 °C.
Compound `CCC(O)(c1ccc(OCCN(C)C)cc1)c1cccc(C(F)(F)F)c1` (configuration not stated) yielded a melting point of 69 to 70 °C.
Take `CC(C)C[C@H]1[C@@H](O)C(=O)N1C(=O)OC(C)(C)C`: the melting point was 108 °C.
The compound `O[C@@H]1[C@H](O)[C@H](O)CO[C@H]1n1c(Br)nc2ccc(Cl)cc21` yielded a melting point of 100 °C.
The compound `O=C1NC(=O)C(C2CCc3cc(O)ccc32)S1` (configuration not stated) showed a melting point of 108 to 112 °C.
In turn, `CN1CC(c2ccc(OCc3ccc(F)cc3)cn2)=C(O)C1=O` displayed a melting point of 210 to 211 °C.
`CC1(C)CN(CCN2CC(C)(C)N(O)C(C)(C)C2=O)C(=O)C(C)(C)N1O` came in with a melting point of 193 °C.
In turn, `O=C(O)c1ccc2c(c1)C(c1ccccc1Cl)=NC=C1N=NC(C3CC3)N12` (configuration not stated) gave a melting point of 170 to 175 °C.
Consider `Nc1nc2c(ncn2COCCOC(=O)c2ccccc2)c(=O)[nH]1`, for which the melting point fell in the range of 222 to 226 °C.
`CC1CCc2ncc(C#N)c(=O)n21` (configuration not stated) showed a melting point of 148 °C.
The compound `CCOC(=O)CCCc1csc(NC(=O)NCc2ccccc2)n1` had a melting point of 157 °C.
In the case of `COC(=O)C=C1c2ccccc2C=C(OC)c2sccc21`, the melting point lay in the range of 124 to 125 °C.
`C[C@@H](c1ccc(C(=O)N(C)NC(N)=S)cc1)[C@](O)(Cn1cncn1)c1ccc(F)cc1F` returned a melting point of 172 to 173 °C.
`CCN1CCC(O)(c2cccc(OC)c2)CC1` returned a melting point of 86.7 to 91.1 °C.
In turn, `COc1cc(C(OC(C)=O)C(COC(C)=O)[N+](=O)[O-])cc(OC)c1OC` (configuration not stated) gave a melting point of 107 to 109 °C.
The compound `CN(CCNC(=O)Cc1ccc(OCc2ccc(-c3ccccc3)cc2)cc1)C(=O)OC(C)(C)C` had a melting point of 109 to 110 °C.
Turning to `COc1ccc(OC)c2c1C(=O)c1c(O)ccc(O)c1C2=O`, the melting point was in the range of 297 to 300 °C.
Consider `Nc1cc2oc(=O)[nH]c2cc1[N+](=O)[O-]`, for which the melting point came to 198 °C.
In turn, `O=C(O)c1cc(F)c(F)c(Br)c1Cl` had a melting point of 138 to 140 °C.
`Cc1ccc(-c2nnc(N3CCOCC3)nc2-c2ccc(C)cc2)cc1` registered a melting point of 190 to 192 °C.
